Experimental data reported in US7235563B2, “Spirocyclic compounds useful as modulators of nuclear hormone receptor function” (Bristol-Myers Squibb Company, priority 2004, dated 2007).
Where two headings read alike, the source gives them in different places.

Assays:
AR [1] = target: T1, AR (Rattus norvegicus, UniProt P15207)
T1 sequence (P15207 1-902): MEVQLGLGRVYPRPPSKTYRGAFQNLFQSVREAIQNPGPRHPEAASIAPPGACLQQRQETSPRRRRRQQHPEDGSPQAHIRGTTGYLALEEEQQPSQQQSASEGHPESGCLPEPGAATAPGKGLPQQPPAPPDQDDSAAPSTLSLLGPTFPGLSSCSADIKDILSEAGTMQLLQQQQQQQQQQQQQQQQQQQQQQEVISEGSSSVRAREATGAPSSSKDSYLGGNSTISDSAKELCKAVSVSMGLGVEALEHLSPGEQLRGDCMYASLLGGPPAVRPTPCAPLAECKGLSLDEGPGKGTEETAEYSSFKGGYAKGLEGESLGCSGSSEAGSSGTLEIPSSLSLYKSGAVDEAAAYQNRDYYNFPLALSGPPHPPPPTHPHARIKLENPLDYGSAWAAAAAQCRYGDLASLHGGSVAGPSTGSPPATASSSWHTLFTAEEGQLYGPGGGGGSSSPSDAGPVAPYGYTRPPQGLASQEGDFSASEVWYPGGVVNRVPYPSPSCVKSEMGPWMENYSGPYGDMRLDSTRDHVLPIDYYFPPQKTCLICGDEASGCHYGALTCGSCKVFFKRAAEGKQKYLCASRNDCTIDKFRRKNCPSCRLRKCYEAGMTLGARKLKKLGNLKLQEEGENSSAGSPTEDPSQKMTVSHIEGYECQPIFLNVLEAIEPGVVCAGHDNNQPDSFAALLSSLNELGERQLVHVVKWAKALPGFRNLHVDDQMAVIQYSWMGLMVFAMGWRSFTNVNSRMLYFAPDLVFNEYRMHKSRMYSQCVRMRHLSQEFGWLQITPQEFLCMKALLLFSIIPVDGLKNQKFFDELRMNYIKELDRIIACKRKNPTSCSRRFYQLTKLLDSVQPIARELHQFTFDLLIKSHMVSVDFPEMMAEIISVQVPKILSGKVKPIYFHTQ
Text: The basis of this assay lies in the well-defined action of androgenic agents on the maintenance and growth of muscle tissues and sexual accessory organs in animals and man. […] J. Anat. […] I. Quantitative data” Boll.-Soc. Ital. Biol. Sper. […] II. Electron-microscopic observations” Boll.-Soc. Ital. Biol. Sper. […] Castration results in rapid involution and atrophy of the prostate and seminal vesicles. This effect can be reversed by exogenous addition of androgens. Since both the levator ani muscle and the male sex organs are the tissues most responsive to the effects of androgenic agents, this model is used to determine the androgen dependent reversal of atrophy in the levator ani muscle and the sex accessory organs in immature castrated rats. […] Control vehicle • 2.
The gain and loss of sexual organ weight reflect the changes of the cell number (DNA content) and cell mass (protein content), depending upon the serum androgen concentration. […] Therefore, measurement of organ wet weight is sufficient to indicate the bioactivity of androgens and androgen antagonist.

AR [2] = target: T1, AR; remark: listed apart in the source
[3] = tested on: wild type AR (MDA 453 cells); details: read-out: Kd for [3H]-DHT, Scatchard analysis
Protocol: For the saturation analysis, the difference between the total binding and the non-specific binding, is defined as specific binding.
[formula] After correcting for non-specific binding, IC50 values are determined. […]

glucocorticoid receptor = glucocorticoid receptor (Homo sapiens, UniProt P04150); details: concentration of ≦10 μM; 10 ng/ml PMA; A549 cells
Protocol: Cells are plated the day before the assay at approximately 40000 cells/well. […] Activity is measured by analysis in a luminometer as compared to control experiments treated with buffer or dexamethasome.

glucocorticoid receptor, sequence (P04150 whole entry): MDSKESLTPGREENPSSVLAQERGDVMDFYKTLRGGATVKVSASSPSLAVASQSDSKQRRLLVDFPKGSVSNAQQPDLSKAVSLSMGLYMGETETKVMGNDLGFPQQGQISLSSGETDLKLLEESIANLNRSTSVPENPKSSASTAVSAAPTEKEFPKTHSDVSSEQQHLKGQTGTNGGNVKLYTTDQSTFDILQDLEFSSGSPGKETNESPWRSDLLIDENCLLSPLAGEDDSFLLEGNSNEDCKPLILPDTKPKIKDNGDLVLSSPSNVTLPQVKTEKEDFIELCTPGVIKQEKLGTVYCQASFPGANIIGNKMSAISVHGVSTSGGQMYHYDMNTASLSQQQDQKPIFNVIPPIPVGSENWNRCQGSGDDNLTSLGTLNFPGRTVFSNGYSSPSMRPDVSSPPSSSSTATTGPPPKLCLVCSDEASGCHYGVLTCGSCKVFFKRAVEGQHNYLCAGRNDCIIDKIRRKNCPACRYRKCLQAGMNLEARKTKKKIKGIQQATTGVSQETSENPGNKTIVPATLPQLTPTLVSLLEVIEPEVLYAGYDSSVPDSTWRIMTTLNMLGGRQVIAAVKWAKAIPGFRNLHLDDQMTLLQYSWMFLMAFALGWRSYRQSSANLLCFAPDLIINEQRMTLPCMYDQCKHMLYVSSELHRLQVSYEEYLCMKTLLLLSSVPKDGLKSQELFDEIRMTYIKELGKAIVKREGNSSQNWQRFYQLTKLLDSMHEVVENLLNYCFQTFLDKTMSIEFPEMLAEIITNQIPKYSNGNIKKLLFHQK

Q: With `CCC(=O)O[C@H]1CC[C@H]2[C@@H]3CCC4=CC(=O)CC[C@]4(C)[C@H]3CC[C@]12C` [TP, testosterone propionate] as the compound, how does the “potency relative to free T” value (AR [1]; TP versus free T) read?
A: 10-30 fold

Q: And the “EC50 (increase in organ weight)” value (AR [1]; castrated rats, dosing for 3 days)?
A: ~0.03 mg

Q: And the “potency relative to free T” value (AR [2]; TP versus free T)?
A: 10-30 fold

Q: And the ED80 (AR [2]; immature castrated rat model)?
A: 0.1 mg

Q: What about the “EC50 (increase in organ weight)” value (AR [2]; immature castrated rats, dosing for 3 days) of the same compound?
A: ~0.03 mg

Q: “tritiated dihydrotestosterone [[^3H]-DHT]” was tested. Which Kd [3] did it give?
A: 0.7 nM

Q: `C[C@@H]1C[C@H]2[C@@H]3CCC4=CC(=O)C=C[C@]4(C)[C@@]3(F)[C@@H](O)C[C@]2(C)[C@@]1(O)C(=O)CO` [dexamethasone] was tested. Which “suppression of activity (% inhibition of the reporter system vs buffer control with PMA)” value (glucocorticoid receptor) did it give?
A: 65%
